Laboratory results reported in patent publication US20210322442A1, “LONG-TERM RE-ABSORBABLE SU[…] WITH CONTROLED PRE-CONCENTRATED PHARMACOLOGICALLY ACTIVE POLYMER SUBSTANCE RELEASE FOR TREATING ENDOMETRIOSIS” (priority 2020, published 2021).

Columns and labels:
endometriosis [1] = conditions: cited from earlier work
endometriosis [2] = test: clinical follow-up of about 1,000 patients treated with gestrinone implants; assay type: in vivo
Experimental: Research was conducted to assess the effectiveness of using the gestrinone implants described here for the treatment of endometriosis. About 1,000 patients with different degrees of the disease were followed up in clinical practice and the dose used was 1 to 3 implants. […] In these patients, treatment can be used only.

Question: For `C#C[C@]1(O)CC[C@H]2[C@@H]3CCC4=CC(=O)CCC4=C3C=C[C@@]21CC` [gestrinone], which “tolerability, oral dose” value (endometriosis [1]) is on record?
Answer: Its value is “up to 5 mg three times a week”.

Question: What about the “carrier protein SHBG in the patient” value (endometriosis [2]; mechanism of action, stated with an increase in free circulating testosterone) of the same molecule?
Answer: Its value is “reduction in the carrier protein SHBG”.

Question: What about the “quality of life of patients” value (endometriosis [2]; observed in practice: mood, libido, reasoning and decision making capacity, lean mass) of the same molecule?
Answer: Its value is “improves the quality of life of patients as a whole”.

Question: And the free circulating testosterone (endometriosis [2]; result of SHBG reduction)?
Answer: Its free circulating testosterone is “increase in free circulating testosterone”.
